Ends that are not written are not given here.
Assays:
cancer cell metastasis = settings: ref [17]; cited from earlier work
From the text: KPs inhibit metastasis in a variety of cancers, including melanoma, breast, endometrial, gastric ovarian cancers, and others. Therefore, KP analogues may act as inhibitors of cancer metastasis which is the major cause of cancer death.

MMP-2 = MMP-2 activity, MMP colorimetric drug discovery kit; format: biochemical; settings: 1.3 μM, 37°C 1 hour, 412 nm; three independent experiments
Protocol: (§1) The activity of MMPs was measured using MMP colorimetric drug discovery kits in a 96-well microtiter plate according to the manufacturer’s instructions. Different concentrations of the phosphinic peptides or 1.3 μM N-Isobutyl-N-(4-methoxyphenylsulfonyl)glycyl hydroxamic acid (NNGH), a positive inhibitor for MMPs, were, respectively, added to the assay mixtures containing MMP enzyme (MMP-2 or MMP-9; 9 mU/μL). The plates were then incubated at 37°C for 1 hour for enzyme reaction. After that, a final concentration of 100 μM colorimetric substrate (Ac-PLG-[2-mercapto-4-methyl-pentanoyl]-LGOC2H5) was added to each well and the plates were then read at 412 nm every minute for at least 20 minutes using PHERAStar FS microplate reader. The full enzyme activity (control) was measured without addition of any inhibitor or tested peptides. The reaction velocity (V) was determined by calculating the slope of the fitted line to the linear portion of the data collected. The slope of blank (without addition of MMP enzyme) was subtracted from all samples and the remaining activity of the enzyme was calculated using following formula.
(§2) %Enzymeactivity=V(inhibitor)/V(control)*100
(§3) Fig 7 Effect of KP phosphinic peptides on MMP-2 (A) or MMP-9 (B) enzyme activity. […] The maximum activity (control) was measured in the absence of inhibitors. […]

MMP-9 = MMP-9 activity, MMP colorimetric drug discovery kit; format: biochemical; settings: 1.3 μM, 37°C 1 hour, 412 nm; three independent experiments
Protocol: as §1, §2, §3

Row | Molecule | inhibition of cancer cell metastasis (cancer cell metastasis) | inhibition of MMP-2 activity by positive control (MMP-2) | inhibition of MMP-9 activity by positive control (MMP-9)
1 | KP-54: endogenous 54-amino acid peptide ligand of kisspeptin receptor (GTSLSPPPESSGSPQQPGLSAPHSRQIPAPQGAVLVQREKDLPNYNWNSFGLRF; ends and bridges not checked; UniProt Q15726 68-121, looked up) | inhibit cancer cell metastasis |  | 
2 | COc1ccc(S(=O)(=O)N(CC(=O)NO)CC(C)C)cc1 [NNGH, N-Isobutyl-N-(4-methoxyphenylsulfonyl)glycyl hydroxamic acid] |  | almost completely inhibited | almost completely inhibited

From PMC5882139, “Functional examination of novel kisspeptin phosphinic peptides” (PLoS ONE, 2018)
